This is an account of results in US20250114390A1, “MULTI-ACTIVE TABLET IN THE TREATMENT AND CONTROL OF SEVERE CHRONIC PAIN AND METHOD OF PREPARATION” (LABORATORIOS SILANES S.A. DE C.V., priority 2023, published 2025).

In brackets after ≈: the same amount, converted by molar mass. Where two headings read alike, the source gives them in different places.

For series [1] the following is noted: cited from earlier work.
In another series the test system is healthy subjects. Put plainly: Adverse events in the comparative bioavailability clinical trial. The following applies: single dose. The source says: The study was open, longitudinal, prospective, with a 3×6×3 design, with random assignment, single dose, three treatments, three periods and six sequences under fasting conditions, in a healthy Mexican female and male population with a washout time for drug elimination of one week (07 days) between each period.
Due to the COVID-19 health emergency, the 42 research subjects were divided into two hospitalization groups: Group 1 with 22 research subjects and Group 2 with 20 research subjects. After fasting for at least 10 hours, a blood sample was taken at time 0.00 hours, and a dose of celecoxib/pregabalin/vitamin B, 200 mg/150 mg tablets/vitamin B12 500 μg/vitamin B1 100 mg/vitamin B6 50 mg was administered, in a single dose of the test medicament or the reference medicament as monotherapy (celecoxib 200 mg capsule or pregabalin 150 mg capsule) according to prior randomization, orally with 250 ml of water at room temperature. After administration of the corresponding medicament, another 17 samples were taken at the following times: 0.50, 0.75, 1.00, 1.33, 1.66, 2.00, 2.50, 3.00, 3.50, 4.00, 6.00, 8.00, 10.00, 14.00, 24.00, 36.00- and 48.00-hours post-dose.

The conditions of series [2]: cited from earlier work. The source holds these as a separate data set.

With `Cc1ncc(CO)c(CO)c1O` [Pyridoxine], in series [1] (air, light), the “Stability (description)” value was “stable in air and slowly decomposes with light”. For the same compound, the pKa in series [1] is given as 9.4. For the same compound, in series [1] (in words), the Solubility in alcohol result is “slightly soluble”, the “Solubility in diethyl ether” value is reported as “almost insoluble” and the Solubility in water result is listed as “Easily soluble”.

For `CC(C)C[C@H](CN)CC(=O)O` [Pregabalin], the “Permeability (biopharmaceutical classification)” value in series [1] (not told) is reported as “high permeability”. In addition, in the series on healthy subjects, the “Adverse events probably related to dosing, total” value is listed as 16 events; the Events of dizziness is recorded as 13 events; the Events of headache is given as 1 events; the Events of paresthesia is 1 events. Besides, in the series with healthy subjects, the “Events of visual disturbances” value amounted to 1 events.

As to `Cc1ccc(-c2cc(C(F)(F)F)nn2-c2ccc(S(N)(=O)=O)cc2)cc1` [Celecoxib], the Cmax of celecoxib is 600.0 ± 900.00 ng/mL in series [2] (Author: Center for Drug Evaluation, 1999); 602.685 ± 301.48 ng/mL in series [2] (Author: Laboratorios Silanes); 686.83 ± 211.35 ng/mL in series [2] (Author: Lilitkarntrakul, P); 806.0 ± 411.0 ng/mL in series [2] (Author: Paulson, S); 703.86 ± 329.91 ng/mL in series [2] (Author: Sy-Yeuan J). In addition, the ABC0-t of celecoxib in series [2] (Author: Laboratorios Silanes) is listed as 5593.760 ± 2158.606 ng/mL*h; in series [2] (Author: Lilitkarntrakul, P), 5157.12 ± 1499.46 ng/mL*h; in series [2] (Author: Paulson, S), 5994.0 ± 2393.0 ng/mL*h; in series [2] (Author: Sy-Yeuan J), 7267.48 ± 2077.68 ng/mL*h. Besides, in series [1], the Solubility was 3.3 g/L (≈ 8.65 mM). The “Solubility (biopharmaceutical classification)” value in series [1] is “low solubility”.

For the compound `Cc1ncc(C[n+]2csc(CCO)c2C)c(N)n1` [Thiamine], in series [1], the pKa is reported as 15.5. In series [1] (in words), the Solubility in chloroform entry is recorded as “very slightly soluble”, the “Solubility in diethyl ether” value is “almost insoluble”, the Solubility in ethanol result is listed as “slightly soluble” and the “Solubility in hot water” value is given as “Freely soluble”. In addition, in series [1] (in words), the Solubility in methanol entry is “slightly soluble” and the Solubility in water entry is given as “slightly soluble”.

For the compound Cyanocobalamin, the pH in series [1] (1 g/L at 20° C.) is 6.0. Moreover, in series [1], the Solubility was 12 g/L and the pKa is given as 1.82. Moreover, in series [1] (in words), the Solubility in acetone entry is “almost insoluble”, the Solubility in alcohol entry is listed as “Soluble”, the Solubility in chloroform result is “almost insoluble” and the “Solubility in diethyl ether” value is listed as “almost insoluble”. In addition, in series [1] (in words), the Solubility in water result is “slightly soluble”.

As a reminder, the pKa is the negative logarithm of the acid dissociation constant. The term Solubility denotes how much of the substance goes into solution per volume.
